{"source": "patent US8653237B2", "about": "“Peptide analogues” (MannKind Corporation, priority 2005, dated 2014)", "key": {"HLA-A*0201 [1]": {"target": "T1, HLA-A*0201 (Homo sapiens, UniProt P04439, D140Y/D185E/D98H/E176V/E277Q/G131W/G231S/I119V/I121R/I166T/I218V/L300P/L318F/N151K/N90K/P208A/P217A/Q86G/Q94H/R138H/R169H/T345S)", "assay": "iTopia affinity assay (ED50)", "assay_type": "binding", "from_the_text": "Avidin-coated microtiter plates containing class I monomer loaded with a so-called placeholder peptide were used to evaluate peptide binding, affinity and off-rate. The monomer-coated plates were supplied as part of the iTopia Epitope Discovery System Kit (Beckman Coulter, Inc., San Diego, Calif., USA). Assay buffers, anti-MHC-FITC mAb and beta2-microglobulin and control peptides were also supplied with the kits.\nPlates were read on the fluorometer. Sigmoidal dose response curves were generated using Prism software."}, "[2]": {"system": "T cell line specific for the native epitope PRAME425-433", "assay": "Cross-reactivity: IFN-gamma secretion from T cell line specific for native PRAME425-433", "assay_type": "cell-based, HHD transgenic mice", "settings": "analog peptide at approximately 0.304 (so in the source); normalized to native peptide", "protocol": "At 7 days after the last boost, the mice were sacrificed and a suspension of splenocytes prepared at 5×10^6 […] cells/ml in complete HL-1 medium. Cells were incubated with different concentrations of peptide for 48 hours in flat-bottomed 96-well plates (200 μl/well) and for an additional 24 hours with rIL-2 at 10 U/ml added to the wells. The supernatant was harvested and the concentration of IFN-gamma assessed by standard methods such as ELISA.\nThe analogs listed in FIGS. 26-28 were tested for various properties such as improved affinity and stability of binding, cross-reactivity with the native epitope, and immunogenicity as follows in Examples 40-48. […] The observed affinities of the analogs are reported as % binding (compared to the positive control) and ED50, and stability of binding as half time of dissociation. Cross reactivity with the native epitope was assessed by using the analog peptides to stimulate IFN-gamma secretion from a T cell line specific for the native epitope, essentially as described in Example 6. The data shown in FIGS. 26-28 were generated by stimulating with analog peptide at approximately 0.304. […] In some cases, the reported values are the average of two determinations."}, "HLA-A*0201 [3]": {"target": "T1, HLA-A*0201", "assay": "Peptide binding using T2 cells (affinity to HLA-A*0201)", "parameters": "endogenous in cells; host or cells: T2 cells", "settings": "peptide concentration giving 50% of the saturation signal on T2 cells"}, "[4]": {"system": "T cell lines against natural epitope SSX-241-49", "assay": "Cross-reactivity and functional avidity: IFN-gamma production by T cell lines raised against natural SSX-2 41-49", "assay_type": "cell-based, HHD transgenic mice", "settings": "T cells raised against native SSX-2 41-49 stimulated with analog, native = 1, lower = more active"}}, "note": "Square brackets hold non-standard residues; d marks the D form. Peptide text beside a SMILES is read from it. Cha = N[C@@H](CC1CCCCC1)C(=O)O"}
{"compound": "Lys P1 analog: PRAME425-433 analog with Lys substituted for the Ser at the P1 position (KLLQHLIGL; UniProt P78395 425-433, looked up, variant S425K)", "values": [{"measurement": "Binding affinity (ED50) relative to native peptide (in words)", "setting": "HLA-A*0201 [1]", "result": "reduced by almost 6-fold"}, {"measurement": "IFN-γ elicited, relative to native peptide", "setting": "[2]", "result": 40, "unit": "%"}]}
{"compound": "CC[C@H](C)[C@H](NC(=O)[C@H](CCCCN)NC(=O)[C@H](CCC(=O)O)NC(=O)[C@H](CO)NC(=O)[C@H](C)NC(=O)[C@@H](N)CC1CCCCC1)C(=O)N[C@@H](Cc1ccccc1)C(=O)N[C@@H](Cc1ccc(O)cc1)C(=O)N[C@H](C(=O)O)C(C)C", "note": "[SSX2 41-49 (K41(Cha))] (H-[Cha]ASEKIFYV-OH)", "values": [{"measurement": "Half-maximal Binding", "setting": "HLA-A*0201 [3]", "result": "N/B"}]}
{"compound": "CC[C@H](C)[C@H](NC(=O)[C@H](CCCCN)NC(=O)[C@H](CCC(=O)O)NC(=O)[C@H](CO)NC(=O)[C@H](Cc1cccc2ccccc12)NC(=O)[C@@H](N)CCCCN)C(=O)N[C@@H](Cc1ccccc1)C(=O)N[C@@H](Cc1ccc(O)cc1)C(=O)N[C@H](C(=O)O)C(C)C", "note": "[SSX2 41-49 (A42(Nal-1)), KNal-1SEKIFYV]", "values": [{"measurement": "Half-maximal Binding", "setting": "HLA-A*0201 [3]", "result": "N/B"}]}
{"compound": "CC[C@H](C)[C@H](NC(=O)[C@H](CCCCN)NC(=O)[C@H](CCC(=O)O)NC(=O)[C@H](CO)NC(=O)[C@@H](NC(=O)[C@@H](N)Cc1ccccc1)C(C)C)C(=O)N[C@@H](Cc1ccccc1)C(=O)N[C@@H](Cc1ccc(O)cc1)C(=O)N(C)[C@H](C(=O)O)C(C)C", "note": "[SSX2 41-49 (K41F, A42V, V49MeVal)]", "values": [{"measurement": "Cross-reactivity and fct avidity (native to analogs)", "setting": "[4]", "result": 10}]}
